Source: patent US20240085429A1, “ALTERING PROTEIN FUNCTION BY PHARMACOLOGICAL TARGETING OF MEMBRANE DOMAINS” (University of Virginia Patent Foundation, priority 2021, published 2024)
Counter-ions that a name gives are not always drawn.

Experiments:
Design in all cases: species or system human
GPMVs from HeLa cells [1] = experiment: Di4 fluorescence lifetime imaging (lipid packing in GPMVs); settings: TLCK 1 μM, C6-ceramide 1 μM, MβCD 5 mM; for phase state of GPMVs in FLIM images: room temperature; for average Di4 lifetime: single-phase GPMVs (MβCD: average across all domains), control 2.53±0.06 ns, mean±SD
Description: It was also of interest how TLCK and C6-ceramide impact other properties of the membrane compared to treatments such as cholesterol depletion that are commonly used to disrupt rafts in cells (Zidovetzki & Levitan, 2007). To test this, we examined their effects on membrane lipid packing and fluidity using a fluorescent reporter of membrane packing, Di-4-[…] (Di4) (Jin et al., 2006; Owen et al., 2006; Sezgin et al., 2014; Levental et al., 2020b; Lorent et al., 2020). As a control, we subjected GPMVs to cholesterol depletion using 5 mM MβCD. The photophysical characteristics of Di4, including its lifetime, are dependent on lipid packing in membranes. In particular, a lower Di4 lifetime is indicative of loose packing and a more fluid membrane environment whereas higher Di4 lifetimes point to a less fluid membranes and tighter lipid packing. […] The phase separated vesicles were characterized by two populations of lifetimes, corresponding to the Lo phase (higher lifetime) and Ld phase (lower lifetime) (FIGS. 11A-11F).
GPMVs were prepared as previously described by Sezgin, E, et al., Nat Protoc 2012, 7 (6), 1042-51. In brief, HeLa cells were washed twice with GPMV buffer (2 mM CaCl2)/10 mM HEPES/0.15 M NaCl, pH 7.4), then washed twice with GPMV active buffer (GPMV buffer containing 25 mM formaldehyde and 2 mM DTT). Cells were then incubated with GPMV active buffer for 1-2 hours at 37° C. with shaking at 90-95 RPM. The GPMV-containing supernatant was decanted into a centrifuge tube and GPMVs were allowed to settle for 1 h. Aliquots of GPMVs (100 μL) were pipetted from the bottom of the Eppendorf tube into separate tubes and treated with DMSO (0.1%), 1 μM TLCK, 1 μM C6-ceramide or 5 mM MbCD. After 5 min, Di 4 […] (Di4) (Thermo Scientific) was added to a final concentration of […] from a stock solution of 1 mg/mL Di4 in ethanol. The GPMVs were then sandwiched between two coverslips coated with 1 mg/mL bovine serum albumin (BSA) solution and allowed to incubate for an additional 20 min prior to lifetime measurements.
Di4 lifetime images were performed on a Leica TCS SP8 system comprising a Leica DMi8 inverted scanning confocal microscope with time-correlated single photon counting (TC-SPC) system and an 80 MHz-pulsed supercontinuum white light laser which allows continuously tunable excitation in the visible range coupled with filter-free detection. Samples were imaged using an HC PL APO CS2 63X/1.20 water objective. Di4 was excited at 488 nm and the emission was collected in the 550-800 nm range. The photon count rate was kept under 0.5 photons per laser pulse by adjusting the laser power, and sufficient frames were cumulatively acquired to obtain at least 100 photons per pixel. The fluorescence decay curves were fit with a bi-exponential re-convolution function adjusted to the instrument response function, and the average intensity-weighted lifetime was calculated for individual vesicles or area of interest and represented in the FLIM images as Di4 lifetime. Data are reported from two independent experiments. Statistical analyses were performed using GraphPad Prism 9.3.0.

GPMVs from HeLa cells [2] = experiment: Assay robustness, SSMD* based on % phase separated GPMVs; settings: for SSMD* based on percentage of phase separated GPMVs: 10 mM (so in the source) vs DMSO, mean±SD, n=3; for SSMD* effect size class: classification per Zhang, 2011
Procedure: GPMVs were prepared as described above and incubated for 2 hours at RT. They were then seeded into a flat bottom, black-walled 96-well plates (Greiner Bio-One, Kremsmunster, Austria) coated with 0.1% bovine serum albumin and pre-loaded in a checkerboard pattern with DMSO, 10 mM TLCK, or 10 mM C6 ceramide (FIG. 12A). GPMVs were imaged using the ImageXpress Micro XL automated imager using a Nikon 40× super plan fluor ELWD objective and analyzed using the software described above to determine the percentage of phase separated vesicles in each well (FIG. 12B). An estimate for robust strictly standardized mean difference (SSMD*) (Zhang, X. D., Genomics 2007, 89 (4), 552-611; Zhang, X. D., et al., J Biomol Screen 2011, 16 (7), 775-85) was then calculated based on the percentage of phase separated vesicles per well as reported in the NBD-DSPE channel according to the following equation: […]
Here, XP and XN represent the medians of the percentage of phase separated vesicles for the positive controls (C6 ceramide or TLCK) and negative control (DMSO), respectively, whereas śP and śN correspond to the absolute deviations from the median for the positive and negative controls. Three independent GPMV preparations were analyzed on separate days to evaluate reproducibility (FIG. 12C).

[3] = tested on: GPMVs derived from HeLa cells; experiment: Ten-point dose response of re-ordered hits in GPMVs; settings: for percentage of phase separated vesicles as a function of increasing concentration: freshly made reordered stocks
Procedure: Compounds identified in the initial screens as potential hits were re-ordered and their identity verified by mass spectrometry by the Vanderbilt Chemical Synthesis Core. Ten-point dose response curves using ˜1:2 serial dilutions were generated producing a range of final concentration of 30 nM to […] and backfilled to yield equivalent concentrations of DMSO. Data were collected in duplicate for each concentration. Two independent dose response experiments were performed.

## CCCCCCCCCCCCC/C=C/[C@@H](O)[C@H](CO)NC(=O)CCCCC [C6 Ceramide (d18:1/6:0)]
GPMVs from HeLa cells [1]
  phase state of GPMVs in FLIM images: contained a single membrane phase
  average Di4 lifetime: 2.53±0.11 ns
GPMVs from HeLa cells [2]
  SSMD* based on percentage of phase separated GPMVs: 8.84±2.65
  SSMD* effect size class: extremely strong
[3]
  effect on phase preference of NBD-DSPE (Pordered) versus concentration: dose-dependent
  percentage of phase separated vesicles as a function of increasing concentration: opposite effect

## Cc1ccc(S(=O)(=O)N[C@@H](CCCCN)C(=O)CCl)cc1 [TLCK hydrochloride, Nα-Tosyl-Lys Chloromethyl Ketone]
GPMVs from HeLa cells [1]
  phase state of GPMVs in FLIM images: mixture of phase separated
  average Di4 lifetime: 2.43±0.06 ns
GPMVs from HeLa cells [2]
  SSMD* based on percentage of phase separated GPMVs: 1.34±0.29
  SSMD* effect size class: moderate
[3]
  effect on phase preference of NBD-DSPE (Pordered) versus concentration: dose-dependent
  percentage of phase separated vesicles as a function of increasing concentration: systematically increased
